# Source: US20260217863A1, “ANTIBODY OR PEPTIDE BINDING SPECIFICALLY TO RNASE A, IMMUNOASSAY DEVICE AND METHOD FOR DETECTING RNASE A, AND METHOD FOR COLLECTING RNASE A” (UIF (University Industry Foundation), Yonsei University, priority 2022, published 2026)
# Where no end group is shown, it is not given here.
# Target: T1, RNase A (Bos taurus, UniProt P61823)
# T1 sequence (P61823 27-150): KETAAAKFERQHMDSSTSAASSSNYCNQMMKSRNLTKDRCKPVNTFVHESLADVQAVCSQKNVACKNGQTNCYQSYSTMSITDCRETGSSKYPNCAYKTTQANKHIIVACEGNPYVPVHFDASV
# Test: RNA cleavage assay with total RNA from HeLa cells, agarose gel imaging
# Format: biochemical, bovine
# Set-up: Ribonuclease A (Type II-A) from bovine pancreas; purchased Sigma-Aldrich Korea; host or cells: bovine pancreas
# Details: RNase 0.7 μg/ml, agarose gel image analysis, read-out: IC50 for RNase A activity inhibition
# Method: The analysis of RNase inhibitory activity of Fv antibodies and synthetic peptides was performed using RNA samples extracted from HeLa cells as follows: (1) Mixing the RNA sample extracted from HeLa cells (600 ng) with 87.5 nM-5.6 μM under conditions of 37° C. for 30 minutes, (2) Electrophoresis on a 1% agarose gel at 90 V for 40 minutes. The estimation of RNase inhibitory activity was carried out by gel imaging of the cleaved RNA using a ChemiDoc XPS (Bio-Rad, CA, USA).
# (§1) Using RNA samples extracted from HeLa cells, the RNase inhibitory activity of the synthesized peptides was estimated. The RNase inhibitory activity was assessed using agarose gel imaging of the cleaved RNA. To optimize the RNase concentration for the RNase inhibition assay, total RNA was treated with RNase A (600 ng), with RNase A concentrations ranging from 5.7 ng/ml to 3.6 μg/ml, and the cleaved RNA bands were observed after treatment with ETBR (ethidium bromide). […] The RNase concentration for inhibition analysis was determined to be 0.7 μg/ml, with RNase concentrations above 3.6 μg/ml. The inhibition analysis was performed by mixing total RNA from HeLa cells with RNase (0.7 μg/ml) and Fv-antibody at a concentration of 10 μM, resulting in the observation that the entire RNA was completely cleaved into small RNA bands in the absence of the Fv-antibody. […] The optimal concentration of the Fv-antibody for RNase inhibition was determined by the cleavage reaction with total RNA in the concentration range of 87.5 nM to 5.6 μM for Fv-antibodies (Fv-1, Fv-2, Fv-3).
# The analysis of RNase inhibitory activity of Fv antibodies and synthetic peptides was performed using RNA samples extracted from HeLa cells as follows: (1) A mixture of RNA samples extracted from HeLa cells (600 ng) was prepared at concentrations of 87.5 nM-5.6 μM and incubated at 37° C. for 30 minutes; (2) Electrophoresis was conducted in a 1% agarose gel under 90 V for 40 minutes. The estimation of RNase inhibitory activity was carried out by gel imaging of the cleaved RNA using a ChemiDoc XPS (Bio-Rad, CA, USA).
# as §1, with “the” for “the concentration”
row,Sequence,IC50
1,CGPDSDVMTDF [Peptide-1],995 nM
2,YGPVGRVKRDD [Peptide-2],658 nM
3,DGTAKKSRKDD [Peptide-3],464 nM
